For one assay, the target named is T1, human ETA receptors (Homo sapiens, UniProt P25101).
T1 construct: made in house; host or cells: baculovirus-infected insect cells (membrane preparation)
T1 sequence (P25101 21-427): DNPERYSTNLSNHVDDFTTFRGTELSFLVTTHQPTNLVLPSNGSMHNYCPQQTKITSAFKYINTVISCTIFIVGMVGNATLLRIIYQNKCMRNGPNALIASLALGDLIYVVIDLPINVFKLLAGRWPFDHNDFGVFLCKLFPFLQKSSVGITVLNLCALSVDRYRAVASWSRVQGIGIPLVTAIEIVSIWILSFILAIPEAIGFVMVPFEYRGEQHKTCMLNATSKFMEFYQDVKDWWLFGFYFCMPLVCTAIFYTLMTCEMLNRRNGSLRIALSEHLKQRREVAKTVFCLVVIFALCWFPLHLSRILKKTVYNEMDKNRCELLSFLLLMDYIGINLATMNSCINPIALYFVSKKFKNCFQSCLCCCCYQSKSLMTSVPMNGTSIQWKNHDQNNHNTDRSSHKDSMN
Description: Inhibition of endothelin binding to recombinant ETA receptors. To be noted: baculovirus-insect cell membranes, 20 pM 125I-endothelin, 20° C. for 2 hours or 4° C. for 24 hours, read-out: IC50 (inhibition of specific binding of 125I-endothelin). Here is the method:
I: […] A cDNA coding for human ETA receptors of human placenta was cloned ([…]. Yang, Y. Furuichi and C. Miyamoto, BBRC 180, 1265-1272) and expressed in the baculovirus-insect cell system. Baculovirus-infected insect cells from a 23 l fermenter are centrifuged off (3000×g, 15 minutes, 4° C.) 60 hours after the infection, re-suspended in Tris buffer (5 mM, pH 7.4, 1 mM MgCl2) and again centrifuged. After a further re-suspension and centrifugation the cells are suspended in 800 ml of the same buffer and […] at -120° C. The cells disintegrate when the suspension in this hypotonic buffer mixture is thawed. After a repeated freeze-drying/thawing cycle the suspension is homogenized and centrifuged (25000×g, 15 minutes, 4° C.). After suspension in Tris buffer (75 mM, pH 7.4, 25 mM MgCl2, 250 mM sucrose) 1 ml aliquots (protein content about 3.5 mg/ml) are stored at -85° C. […] The incubation is carried out at 20° C. for 2 hours or at 4° C. for 24 hours. The separation of free and membrane-bound radio-ligands is carried out by filtration over a glass fibre filter.

The target of assay [1] is T2, endothelin-induced contractions in isolated rat aorta rings (Rattus norvegicus, UniProt P26684).
T2 construct: cut out from the thorax aorta of adult Wistar-Kyoto rats; from tissue; host or cells: thoracic aorta rings of adult Wistar-Kyoto rats, endothelium removed
T2 sequence (P26684 21-426): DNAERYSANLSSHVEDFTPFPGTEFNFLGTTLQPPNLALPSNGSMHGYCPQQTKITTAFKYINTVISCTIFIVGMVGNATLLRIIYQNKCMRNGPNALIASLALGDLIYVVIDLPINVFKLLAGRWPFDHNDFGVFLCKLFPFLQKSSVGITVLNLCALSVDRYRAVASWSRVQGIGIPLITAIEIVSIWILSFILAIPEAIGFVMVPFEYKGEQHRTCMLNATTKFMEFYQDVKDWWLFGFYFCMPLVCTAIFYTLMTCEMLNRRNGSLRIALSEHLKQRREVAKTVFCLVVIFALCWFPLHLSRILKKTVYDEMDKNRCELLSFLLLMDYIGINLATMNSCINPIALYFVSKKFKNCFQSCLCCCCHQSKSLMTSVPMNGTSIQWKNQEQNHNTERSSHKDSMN
As to the kind of experiment: Inhibition of endothelin-induced contractions in isolated rat aorta rings. In kind it is cell-based, rat (Wistar-Kyoto). To be noted: read-out: pA2 value; Dose ratio (switch to the right) (converted). The method, then:
Rings with a length of 5 mm were cut out from the thorax aorta of adult Wistar-Kyoto rats. The endothelium was removed by lightly rubbing the internal surface. Each ring was immersed at 37° C. in 10 ml of Krebs-Henseleit solution in an isolated bath while gassing with 95% O2 and 5% CO2. The isometric stretching of the rings was measured. The rings were stretched to a pre-tension of 3 g.
The corresponding pA2 value, which is a measure of the activity of the test compound, was calculated using a computer programme according to the following equation from the "dose ratio" DR for each individual dosage-activity curve.
pA2 =log(DR-1)-log(antagonist-concentration)

As usually defined, the IC50 is the concentration needed to halve the response being measured.

Turning to `COc1ccccc1Oc1c(NS(=O)(=O)c2ccc(C(C)(C)C)cc2)nc(-c2ccnc(-c3nnn[nH]3)c2)nc1OCCOC(=O)Nc1ccccn1` [Example 4, 2-[6-(4-tert-butyl-phenylsulphonylamino)-5-(2-methoxy-phenoxy)-2-(2-1H-tetrazol-5-yl-pyridin-4-yl)-pyrimidin-4-yl-oxy]-ethyl pyridin-2-ylcarbamate], the IC50 at human ETA receptors worked out at 6 nM. The Kb in assay [1] was 0.251 nM.

For the compound `COc1ccccc1Oc1c(NS(=O)(=O)c2ccc(C)cn2)nc(-c2ccnc(-c3nnn[nH]3)c2)nc1OCCO` [Example 29, 5-methyl-pyridine-2-sulphonic acid 6-(2-hydroxy-ethoxy)-5-(2-methoxy-phenoxy)-2-(2-1H-tetrazol-5-yl-pyridin-4-yl)-pyrimidin-4-ylamide], the IC50 at human ETA receptors was found to be 4 nM. Further, the Kb in assay [1] was 0.1 nM.

`COc1ccccc1Oc1c(NS(=O)(=O)c2ccccc2)nc(-c2ccnc(-c3nnn[nH]3)c2)nc1OCCOC(=O)Nc1ccccn1` [Example 35, 2-[5-(2-methoxy-phenoxy)-6-phenyl-sulphonylamino-2-(2-1H-tetrazol-5-yl-pyridin-4-yl)-pyrimidin-4-yloxy]-ethyl pyridin-2-ylcarbamate]: the 50% inhibitory concentration (IC50) on human ETA receptors stood at 2 nM. Also, the Kb in assay [1] was 0.316 nM.

For the compound `COc1ccccc1Oc1c(NS(=O)(=O)c2ccc(C)cc2)nc(-c2ccnc(-c3nnn[nH]3)c2)nc1OCCOC(=O)Nc1ccccn1` [Example 36, 2-[5-(2-methoxy-phenoxy)-6-(4-methyl-phenylsulphonylamino)-2-(2-1H-tetrazol-5-yl-pyridin-4-yl)-pyrimidin-4-yloxy]-ethyl pyridin-2-ylcarbamate], the IC50 at human ETA receptors is 8 nM. Also, in assay [1], the Kb is 0.398 nM.

Take `COc1ccccc1Oc1c(NS(=O)(=O)c2ccc(SC)cc2)nc(-c2ccnc(-c3nnn[nH]3)c2)nc1OCCOC(=O)Nc1ccccn1` [Example 40, 2-[5-(2-methoxy-phenoxy)-6-(4-methylsulphanylphenylsulphonylamino)-2-(2-1H-tetrazol-5-yl-pyridin-4-yl)-pyrimidin-4-yloxy]-ethyl pyridin-2-ylcarbamate]: the IC50 on human ETA receptors stood at 8 nM. For the same compound, the Kb in assay [1] is 0.0631 nM.

Turning to `COc1ccccc1Oc1c(NS(=O)(=O)c2ccc3c(c2)OCO3)nc(-c2ccnc(-c3nnn[nH]3)c2)nc1OCCOC(=O)Nc1ccccn1` [Example 41, 2-[6-(1,3-benzodioxol-5-yl-sulphonylamino)-5-(2-methoxy-phenoxy)-2-(2-1H-tetrazol-5-yl-pyridin-4-yl)-pyrimidin-4-yloxy]-ethyl pyridin-2-ylcarbamate], the IC50 at human ETA receptors is 1 nM. The Kb in assay [1] is 0.0251 nM.

For the origin of these results see patent publication US6004965A, “Sulfonamides” (Hoffmann-La Roche Inc., priority 1994, dated 1999).
